Literature values, collected in patent US20030109488A1, “Methods for treating dry eye” (Alcon, Inc., priority 2001, published 2003).

System: human conjunctival epithelial cells
Details: background statement, no data given

SMILES: CCCCC[C@H](O)/C=C/C=C\C/C=C\C/C=C\CCCC(=O)O [15-HETE]
- secretion of mucin-1 (MUC-1): increase the secretion of mucin-1 (MUC-1)
